The results in this text go back to patent US20230242530A1, “8-(AZETIDIN-1-YL)-[1,2,4]TRIAZOLO[1,5-A]PYRIDINYL COMPOUNDS, COMPOSITIONS AND METHODS OF USE THEREOF” (Genentech, Inc., priority 2016, published 2023).

The target of assay [1] is T1, isolated recombinant JAK1 kinase domain (Homo sapiens, UniProt P23458).
T1 construct: isolated recombinant JAK1 and JAK2 kinase domain
Nature of the assay: JAK enzyme assay, JAK1 kinase domain (Caliper LabChip). In kind it is biochemical. Conditions: 1.5 nM JAK1, ATP 25 μM, Morrison tight binding model. As for the experimental part:
(§1) JAK Enzyme Assays were Carried Out as Follows:
(§2) The activity of the isolated recombinant JAK1 and JAK2 kinase domain was measured by monitoring phosphorylation of a peptide derived from JAK3 (Val-Ala-Leu-Val-Asp-Gly-Tyr-Phe-Arg-Leu-Thr-Thr, fluorescently labeled on the N-terminus with 5-carboxyfluorescein) using the Caliper LabChip® technology (Caliper Life Sciences, Hopkinton, Mass.). […] Reactions were incubated at 22 °C in 384-well polypropylene microtiter plates for 30 minutes and then stopped by addition of 25 μL of an EDTA containing solution (100 mM HEPES buffer (pH 7.2), 0.015% Brij-35, 150 mM EDTA), resulting in a final EDTA concentration of 50 mM. After termination of the kinase reaction, the proportion of phosphorylated product was determined as a fraction of total peptide substrate using the Caliper LabChip® 3000 according to the manufacturer's specifications. Ki values were then determined using the Morrison tight binding model (Morrison, J. F., Biochim. Biophys. Acta. 185:269-296 (1969); William, J. W. and Morrison, J. F., Meth. Enzymol., 63:437-467 (1979)) modified for ATP-competitive inhibition [Ki=Ki,app/(1+[ATP]/Km,app)].

Assay [2] has as its target T2, isolated recombinant JAK2 kinase domain (Homo sapiens, UniProt O60674).
T2 construct: isolated recombinant JAK1 and JAK2 kinase domain
In words: JAK enzyme assay, JAK2 kinase domain (Caliper LabChip). It is filed as biochemical. Conditions: 0.2 nM JAK2, ATP 25 μM, Morrison tight binding model. As for the experimental part:
as §1, §2

Assay [3] relates to JAK1-dependent STAT6 phosphorylation downstream of IL-13 stimulation in BEAS-2B cells. In words: JAK1 pathway assay in cell lines: IL-13 p-STAT6 BEAS-2B. It is filed as cell-based. Conditions: BEAS-2B human bronchial epithelial cells, 1 hr compound, IL-13 15 min, MSD readout. The procedure:
JAK1 Pathway Assay in Cell Lines was Carried Out as Follows:
Inhibitor potency (EC50) was determined in cell-based assays designed to measure JAK1 dependent STAT phosphorylation. As noted above, inhibition of IL-4, IL-13, and IL-9 signalling by blocking the Jak/Stat signaling pathway can alleviate asthmatic symptoms in pre-clinical lung inflammation models (Mathew et al., 2001, J Exp Med 193(9): 1087-1096; Kudlacz et. al., 2008, Eur J. Pharmacol 582(1-3): 154-161).
In one assay approach, TF-1 human erythroleukemia cells obtained from the American Type Culture Collection (ATCC; Manassas, Va.) were used to measure JAK1-dependent STAT6 phosphorylation downstream of IL-13 stimulation. Prior to use in the assays, TF-1 cells were starved of GM-CSF overnight in OptiMEM medium (Life Technologies, Grand Island, N.Y.) supplemented with 0.5% charcoal/dextran stripped fetal bovine serum (FBS), 0.1 mM non-essential amino acids (NEAA), and 1 mM sodium pyruvate. The assays were run in 384-well plates in serum-free OptiMEM medium using 300,000 cells per well. In a second assay approach, BEAS-2B human bronchial epithelial cells obtained from ATCC were plated at 100,000 cells per well of a 96-well plate one day prior to the experiment. The BEAS-2B assay was run in complete growth medium (bronchial epithelial basal medium plus bulletkit; Lonza; Basel, Switzerland).
Test compounds were serially diluted 1:2 in DMSO and then diluted 1:50 in medium just before use. Diluted compounds were added to the cells, for a final DMSO concentration of 0.2%, and incubated for 30 mi (for the TF-1 assay) or 1 hr (for the BEAS-2B assay) at 37 QC. Then, cells were stimulated with human recombinant cytokine at their respective EC90 concentrations, as previously determined for each individual lot. Cells were stimulated with IL-13 (R&D Systems, Minneapolis, Minn.) for 15 min at 37 °C. The TF-1 cell reactions were stopped by the direct addition of 10× lysis buffer (Cell Signaling Technologies, Danvers, Mass.), whereas the BEAS-2B cell incubations were halted by the removal of medium and addition of 1× lysis buffer. The resultant samples were frozen in the plates at −80 °C. Compound mediated inhibition of STAT6 phosphorylation was measured in the cell lysates using MesoScale Discovery (MSD) technology (Gaithersburg, Md.). EC50 values were determined as the concentration of compound required for 50% inhibition of STAT phosphorylation relative to that measured for the DMSO control.

T1 sequence (P23458 875-1153 limits assumed): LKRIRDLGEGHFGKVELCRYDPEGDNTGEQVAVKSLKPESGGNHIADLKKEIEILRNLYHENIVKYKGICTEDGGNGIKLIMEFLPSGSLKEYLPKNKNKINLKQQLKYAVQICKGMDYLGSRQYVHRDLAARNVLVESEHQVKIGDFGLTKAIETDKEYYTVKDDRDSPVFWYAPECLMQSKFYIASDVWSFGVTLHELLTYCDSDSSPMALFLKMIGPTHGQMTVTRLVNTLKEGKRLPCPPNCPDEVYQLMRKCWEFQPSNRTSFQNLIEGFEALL
T2 sequence (O60674 849-1124 limits assumed): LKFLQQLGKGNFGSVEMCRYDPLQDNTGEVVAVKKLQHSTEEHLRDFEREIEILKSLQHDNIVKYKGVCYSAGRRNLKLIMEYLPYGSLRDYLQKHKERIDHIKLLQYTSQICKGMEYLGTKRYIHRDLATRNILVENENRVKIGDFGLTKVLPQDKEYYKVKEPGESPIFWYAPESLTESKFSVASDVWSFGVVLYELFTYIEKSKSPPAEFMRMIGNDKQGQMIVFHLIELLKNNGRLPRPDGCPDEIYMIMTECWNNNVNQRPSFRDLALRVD

With `N#CCC1(n2cc(C(F)(F)F)cn2)CN(c2cccn3nc(Nc4cnn(CC(=O)N5CCN(CCO)CC5)c4)nc23)C1` [Example 125, formic acid;2-[1-[2-[[1-[2-[4-(2-hydroxyethyl)piperazin-1-yl]-2-oxo-ethyl]pyrazol-4-yl]amino]-[1,2,4]triazolo[1,5-a]pyridin-8-yl]-3-[4-(trifluoromethyl)pyrazol-1-yl]azetidin-3-yl]acetonitrile], the Ki in assay [1] and in assay [2] was 0.4 nM each time. Moreover, the EC50 (as a rule, the midpoint of the concentration-response curve) in assay [3] stood at 21 nM.

With `CCc1cccc(C2(CC#N)CN(c3cccn4nc(Nc5cnn(CC(=O)N6CCN(C)CC6)c5)nc34)C2)c1` [Example 71, 2-[3-(3-ethylphenyl)-1-[2-[[1-[2-(4-methylpiperazin-1-yl)-2-oxo-ethyl]pyrazol-4-yl]amino]-[1,2,4]triazolo[1,5-a]pyridin-8-yl]azetidin-3-yl]acetonitrile], the Ki in assay [1] and in assay [2] was 0.3 nM in each case. In assay [3], this compound returned an EC50 of 26 nM.

With `CSc1cccc(C2(CC#N)CN(c3cccn4nc(Nc5cnn(CC(=O)N6CCC(N7CCOCC7)CC6)c5)nc34)C2)c1` [Example 90, 2-[3-(3-methylsulfanylphenyl)-1-[2-[[1-[2-(4-morpholino-1-piperidyl)-2-oxo-ethyl]pyrazol-4-yl]amino]-[1,2,4]triazolo[1,5-a]pyridin-8-yl]azetidin-3-yl]acetonitrile], the Ki (as a rule, the equilibrium dissociation constant of an inhibitor or competing ligand from its target) was determined as 0.4 nM in assay [1] and 0.2 nM in assay [2]. Besides, a half-maximal effect in assay [3] (EC50) was put at 22 nM.

In the case of `CCc1cnn(C2(CC#N)CN(c3cccn4nc(Nc5cnn(CC(=O)N6CCC(CN7CCN(CC(=O)N(C)C)CC7)CC6)c5)nc34)C2)c1` [Example 42, 2-[4-[[1-[2-[4-[[8-[3-(cyanomethyl)-3-(4-ethylpyrazol-1-yl)azetidin-1-yl]-[1,2,4]triazolo[1,5-a]pyridin-2-yl]amino]pyrazol-1-yl]acetyl]-4-piperidyl]methyl]piperazin-1-yl]-N,N-dimethyl-acetamide], the Ki in assay [1] amounted to 0.4 nM; in assay [2], 2.2 nM. The compound also registered an EC50 in assay [3] of 42 nM.

For the compound `CC(C)Sc1ccc(C2(CC#N)CN(c3cccn4nc(Nc5cnn(CC(=O)N6CCN(C)CC6)c5)nc34)C2)cc1` [Example 16, 2-[3-(4-isopropylsulfanylphenyl)-1-[2-[[1-[2-(4-methylpiperazin-1-yl)-2-oxo-ethyl]pyrazol-4-yl]amino]-[1,2,4]triazolo[1,5-a]pyridin-8-yl]azetidin-3-yl]acetonitrile], the figures for the Ki in assay [1] and in assay [2] were 0.6 nM and 3.7 nM, respectively. The EC50 in assay [3] is 19 nM.

With `CN(CC1(C#N)CC1)C1CCN(C(=O)Cn2cc(Nc3nc4c(N5CC(CC#N)(n6cc(C(F)(F)F)cn6)C5)cccn4n3)cn2)CC1` [Example 109, 1-[[[1-[2-[4-[[8-[3-(cyanomethyl)-3-[4-(trifluoromethyl)pyrazol-1-yl]azetidin-1-yl]-[1,2,4]triazolo[1,5-a]pyridin-2-yl]amino]pyrazol-1-yl]acetyl]-4-piperidyl]-methyl-amino]methyl]cyclopropane carbonitrile], the results for the Ki in assay [1] and in assay [2] were 0.5 nM and 0.4 nM, respectively. For the same compound, the EC50 in assay [3] was 58 nM.

For `Cn1cc(Nc2nc3c(N4CC(CC#N)(n5cc(C(F)(F)F)cn5)C4)cccn3n2)cn1` [Example 135, 2-[1-[2-[(l-methylpyrazol-4-yl)amino]-[1,2,4]triazolo[1,5-a]pyridin-8-yl]-3-[4-(trifluoromethyl)pyrazol-1-yl]azetidin-3-yl]acetonitrile], the Ki in assay [1] is 0.3 nM; in assay [2] it was 0.5 nM. The compound further showed an EC50 in assay [3] of 10 nM.

For `N#CCC1(n2cc(OC(F)F)cn2)CN(c2cccn3nc(Nc4cnn(CC(F)F)c4)nc23)C1` [Example 150, 2-[1-[2-[[1-(2,2-difluoroethyl)pyrazol-4-yl]amino]-[1,2,4]triazolo[1,5-a]pyridin-8-yl]-3-[4-(difluoromethoxy)pyrazol-1-yl]azetidin-3-yl]acetonitrile], the figures for the Ki in assay [1] and in assay [2] were 0.1 nM and 0.2 nM, respectively. For the same compound, it took 6 nM to reach a half-maximal effect in assay [3] (EC50).

In the case of `CCc1cnn(C2(CC#N)CN(c3cccn4nc(Nc5ccc(C(=O)N(C)CC6CCN(C7COC7)CC6)cc5)nc34)C2)c1` [Example 88, 4-[[8-[3-(cyanomethyl)-3-(4-ethylpyrazol-1-yl)azetidin-1-yl]-[1,2,4]triazolo[1,5-a]pyridin-2-yl]amino]-N-methyl-N-[[1-(oxetan-3-yl)-4-piperidyl]methyl]benzamide], the Ki in assay [1] stood at 0.4 nM; in assay [2], 1 nM. This compound showed an EC50 in assay [3] of 35 nM.

On to `CCc1cnn(C2(CC#N)CN(c3cccn4nc(Nc5cnn(CCCO)c5)nc34)C2)c1` [Example 3, 2-[3-(4-ethyl-1H-pyrazol-1-yl)-1-(2-[[1-(3-hydroxypropyl)-1H-pyrazol-4-yl]amino]-[1,2,4]triazolo[1,5-a]pyridin-8-yl)azetidin-3-yl]acetonitrile], for which the Ki was 40.2 nM in assay [1] and 64 nM in assay [2].

Take `CC(C)c1cnn(C2(CC#N)CN(c3cccn4nc(Nc5cn[nH]c5)nc34)C2)c1` [Example 141, 2-[3-(4-isopropylpyrazol-1-yl)-1-[2-(1H-pyrazol-4-ylamino)-[1,2,4]triazolo[1,5-a]pyridin-8-yl]azetidin-3-yl]acetonitrile]: the Ki in assay [1] and in assay [2] was 0.1 nM in each case. A half-maximal effect in assay [3] (EC50) was put at 9 nM.

In the case of `CCc1cnn(C2(CC#N)CN(c3nccn4nc(Nc5cn[nH]c5)nc34)C2)c1` [Example 153, 2-(1-(2-((1H-pyrazol-4-yl)amino)-[1,2,4]triazolo[1,5-a]pyrazin-8-yl)-3-(4-ethyl-1H-pyrazol-1-yl)azetidin-3-yl)acetonitrile], the results for the Ki in assay [1] and in assay [2] were 9 nM and 15.5 nM, respectively.

For `CN1CCN(C(=O)Cn2cc(Nc3nc4c(N5CC(CC#N)(n6cc(Br)cn6)C5)cccn4n3)cn2)CC1` [Example 6, 2-[3-(4-bromo-1H-pyrazol-1-yl)-1-[2-([1-[2-(4-methylpiperazin-1-yl)-2-oxoethyl]-1H-pyrazol-4-yl]amino)-[1,2,4]triazolo[1,5-a]pyridin-8-yl]azetidin-3-yl]acetonitrile], the Ki was determined as 9.5 nM in assay [1] and 15.7 nM in assay [2].

Turning to `CN1CCN(C(=O)Cn2cc(Nc3nc4c(N5CC(CC#N)(c6ccc(Cl)cc6)C5)cccn4n3)cn2)CC1` [Example 7, 2-[3-(4-chlorophenyl)-1-[2-[[1-[2-(4-methylpiperazin-1-yl)-2-oxo-ethyl]pyrazol-4-yl]amino]-[1,2,4]triazolo[1,5-a]pyridin-8-yl]azetidin-3-yl]acetonitrile], the Ki in assay [1] is 37.2 nM; in assay [2], 50.4 nM.

As for `CCc1cnn(C2(CC#N)CN(c3cccn4nc(Nc5cn[nH]c5)nc34)C2)c1` [Example 2, 2-[3-(4-ethyl-1H-pyrazol-1-yl)-1-[2-[(1H-pyrazol-4-yl)amino]-[1,2,4]triazolo[1,5-a]pyridin-8-yl]azetidin-3-yl]acetonitrile], the Ki stood at 17.5 nM in assay [1] and 32.8 nM in assay [2].

For the compound `CN1CCN(C(=O)Cn2cc(Nc3nc4c(N5CC(CC#N)(n6cc(I)cn6)C5)cccn4n3)cn2)CC1` [Example 89, 2-[3-(4-iodopyrazol-1-yl)-1-[2-[[1-[2-(4-methylpiperazin-1-yl)-2-oxo-ethyl]pyrazol-4-yl]amino]-[1,2,4]triazolo[1,5-a]pyridin-8-yl]azetidin-3-yl]acetonitrile], the Ki was determined as 6.4 nM in assay [1] and 18.8 nM in assay [2].
